Results reported in patent publication EP3006026A1, “PHARMACEUTICAL COMPOSITION FOR TREATING ANXIETY CONTAINING L-THEANINE AND BAICALEIN” (FB HEALTH S.P.A., priority 2014, dated 2016).

Columns and labels:
murine model of anxiety = experiment: elevated maze plus (EPM) test, murine model of anxiety; format: in vivo, mice; settings: 60 minutes prior to maze; for time in percentage on the open arms: 10 mg/kg p.o.; for percentage of time spent on the closed arms: compared to the control, 6 minutes observation
Procedure: The activity of a combination of L-theanine and baicalein was tested in a murine model of anxiety.
The mice were assigned randomly to different treatment groups and subjected to tests in a variable order.
Diazepam (Hoffmann - La Roche) was used as reference product. The diazepam was diluted to a concentration of 1.5 mg/10 ml with deionised water (Millipore quality) containing propylene glycol 0.5% (Sigma-Aldrich). Two different doses (10 mg/kg and 25 mg/kg) of bot. baicalein and L-theanine were prepared dissolving the powder in 10 ml of deionised water with propylene glycol 0.5%. All the solutions were prepared the same day as the tests and administered orally (p.o.) in a volume of 10 ml/kg by body weight of the mice. The control animals received a solution of propylene glycol 0.5%.
The animals of the experiment were treated orally with a carrier, diazepam (1.5 mg/kg, n=8), L-theanine (10 mg/kg, 25 mg/kg, n=8), baicalein (10 mg/kg, 25 mg/kg, n=8) or L-theanine + baicalein, in a ratio 1/1 (10 mg/kg, 25 mg/kg, n=8), 60 minutes prior to evaluation in the maze.
Anxiolytic activity was evaluated using the elevated maze plus (EPM) test. [ ]. The maze was composed of two open arms (31 cm x 5 cm x 1 cm) and two closed arms (31 cm x 5 cm x 15 cm) that extended from a central platform (5 cm x 5 cm) raised to a height of 40 cm from the floor. On the wooden base frame, the closed arms were made of opaque grey plastic, while the open arms were made of the same material with only one slightly raised edge. The EPM was indirectly illuminated by three 40W bulbs.
(§1) The mice were placed individually at the centre of the maze facing a closed arm and the number of entries and the time spent in the closed and open arms during an observation period of 6 minutes was recorded. Entries to the arms were defined as the entry of all four paws into an arm [ ]. The time in percentage spent on the open arms (100 x open/total time) was calculated for each animal. We also used the open field test to evaluate possible sedative or stimulating activity of the animals [ ]. The open field consisted of a rectangular opaque grey plastic arena (width 30 cm, length 27 cm, height 30 cm) and was illuminated by six 40W bulbs. The floor of the arena was divided into 6 equidistant rectangles to evaluate the number of times the lines were crossed. Groups of 8 mice were treated with diazepam (1.5 mg/kg, 3 mg/kg p.o.), L-theanine (25 mg/kg, 50 mg/kg n=8), baicalein (25 mg/kg, 50 mg/kg, n=8) or L-theanine + baicalein, in a 1/1 ratio (25 mg/kg, 50 mg/kg, n=8) or a carrier (deionised water with propylene glycol at 0.5% p.o.). All the solutions contained propylene glycol at 0.5% as solubilising substance for diazepam. 60 minutes after oral administration, each mouse was placed at the centre of the arena and recorded for 5 minutes.
The EPM and the open field test were both video recorded using a high resolution video camera WV-CP244 (Panasonic).
Statistical analysis of the data was performed using one-way analysis of variance (ANOVA) followed by the Student-Newman-Keuls multiple comparison test. In all cases the differences were considered significant if p < 0.05.

mice = experiment: open field test for sedative or stimulating activity; format: in vivo; settings: 60 minutes after administration, recorded 5 minutes
Procedure: as §1, with “Groups of 8 mice were treated with diazepam (1.5 mg/kg, 3 mg/kg p.o.), L-theanine (25 mg/kg, 50 mg/kg n=8), baicalein (25 mg/kg, 50 mg/kg, n=8) or L-theanine + baicalein, in a 1/1 ratio (25 mg/kg, 50 mg/kg, n=8) or a carrier (deionised water with propylene glycol at 0.5% p.o.). All the solutions contained propylene glycol at 0.5% as solubilising substance for diazepam.” left out
The EPM and the open field test were both video recorded using a high resolution video camera WV-CP244 (Panasonic). The videos were analysed using the TopScan Top View Animal Behaviour Analyzing System (version 1.00; Clever Sys Inc.) by an impartial person who has no knowledge of the treatment. […]

| Structure (SMILES) | time in percentage on the open arms (murine model of anxiety) | percentage of time spent on the closed arms (murine model of anxiety; 25 mg/kg p.o.) | number of entries to the open arms (murine model of anxiety; diazepam 1.5 mg/kg p.o.) | percentage of time spent on the closed arms (murine model of anxiety; diazepam 1.5 mg/kg p.o.) | sedation in the open field test (mice; 1.5 mg/kg p.o.) | sedation in the open field test (mice; 3 mg/kg p.o.) |
| --- | --- | --- | --- | --- | --- | --- |
| O=c1cc(-c2ccccc2)oc2cc(O)c(O)c(O)c12 [baicalein, 5,6,7-trihydroxy-2-phenyl-chromen-4-one] | did not show any increase | significant increase | – | – | – | – |
| CN1C(=O)CN=C(c2ccccc2)c2cc(Cl)ccc21 [diazepam] | – | – | greater | significant increase | caused significant sedation | caused significant sedation |
| CCNC(=O)CC[C@H](N)C(=O)O [L-theanine, N-ethyl-L-glutamine] | did not show any increase | significant increase | – | – | – | – |
